Results published in patent EP4692083A1, “NOVEL AZABICYCLE DERIVATIVES AND PHARMACEUTICAL COMPOSITION FOR INHIBITING AUTOTAXIN, COMPRISING SAME” (Nextgen Bioscience Co., Ltd., priority 2023, dated 2024).

molecular target: human Autotaxin protein (Homo sapiens, UniProt Q13822); test: Evaluation of the inhibitory activity against human Autotaxin protein (18:1 LysoPC substrate, choline assay kit, absorbance at 570 nm); format: biochemical; settings: at 500nM compound, 2 hours at 37 °C, read-out: Inhibition rate (%, at 500nM)
Procedure: Solutions of each synthesized compound (80 uM, 100% dimethyl sulfoxide) were sequentially diluted 5-fold with dimethyl sulfoxide to prepare 6 concentrations. Each concentration of the compound was diluted 2-fold with 1x test buffer (50 mM Tris-Cl (pH 8.0), 5 mM KCl, 1 mM CaCl2, 1 mM MgCl2, 140 mM NaCl, deionized water, 1 mg/mL BSA), and 1 uL (1.25% dimethylsulfoxide) of the diluted mixture was dispensed into each well of a 96-well clear round-bottom plate. 9 uL of 1x test buffer was added, and 20 uL of 240 nM human autotaxin protein (buffer: 50 mM Tris-HCl, pH 8.0, with 150 mM sodium chloride and 20% glycerol) was added. 10 uL of sonicated 360 uM 18:1 LysoPC (diluted with 1x assay buffer) was added. The reaction was performed for 2 hours in a shaking incubator at 37 °C, and a secondary reaction mixture (choline assay kit, KA1662) (65 uL of 1x assay buffer: 1 uL of choline oxidase: 1 uL of dye probe) was prepared. 60 uL of the secondary reaction mixture was added to the plate where the reaction was performed, and incubated for 30 minutes in a shaker. The absorbance value was measured at a wavelength of 570 nm using a SpectraMax iD3 microplate reader. The percentage inhibition activity value (% inhibition) was calculated by the formula: (1 - absorbance value test group / absorbance value control group) X 100.

inhibition at 0.5 µM [%] | Structure (SMILES)
95.5 | c1ccc2c(c1)CC(Nc1ncc(C3CC(N4C[C@@H]5[C@H](C4)[C@H]5c4cnn[nH]4)=NO3)cn1)C2 (stereo partly drawn) [Example 50, 5-(3-((1R,5S,6r)-6-(1H-1,2,3-Triazol-5-yl)-3-azabicyclo[3.1.0]hexan-3-yl)-4,5-dihydroisoxazol-5-yl)-N-(2,3-dihydro-1H-inden-2-yl)pyrimidin-2-amine]
97 | Cc1ccc(CCNc2ncc(-c3nnc(N4C[C@@H]5[C@H](C4)[C@H]5c4cnn[nH]4)o3)cn2)cc1 [Example 31, 5-(5-((1R,5S,6r)-6-(1H-1,2,3-Triazol-5-yl)-3-azabicyclo[3.1.0]hexan-3-yl)-1,3,4-oxadiazol-2-yl)-N-(4-methylphenethyl)pyrimidin-2-amine]
13.9 | Cn1nncc1[C@H]1[C@@H]2CN(c3nnc(-c4cnc(NCCc5ccc(Cl)cc5)nc4)o3)C[C@@H]21 [Example 47, N-(4-Chlorophenethyl)-5-(5-((1R,5S,6r)-6-(1-methyl-1H-1,2,3-triazol-5-yl)-3-azabicyclo[3.1.0]hexan-3-yl)-1,3,4-oxadiazol-2-yl)pyrimidin-2-amine]
48.7 | c1ccc(CCNc2ncc(-c3nnc(N4C[C@@H]5[C@H](C4)[C@H]5c4cnn[nH]4)o3)cn2)nc1 [Example 32, 5-(5-((1R,5S,6r)-6-(1H-1,2,3-Triazol-5-yl)-3-azabicyclo[3.1.0]hexan-3-yl)-1,3,4-oxadiazol-2-yl)-N-(2-(pyridin-2-yl)ethyl)pyrimidin-2-amine]
3.5 | O=C(O)C[C@@H]1[C@H]2CN(c3nnc(-c4cnc(NCCc5ccc(Cl)cc5)nc4)o3)C[C@@H]12 [Example 51, 2-((1R,5S,6s)-3-(5-(2-((4-Chlorophenethyl)amino)pyrimidin-5-yl)-1,3,4-oxadiazol-2-yl)-3-azabicyclo[3.1.0]hexan-6-yl)acetic acid]
97 | Clc1cc(Cl)cc(CCNc2ncc(-c3nnc(N4C[C@@H]5[C@H](C4)[C@H]5c4cnn[nH]4)o3)cn2)c1 [Example 29, 5-(5-((1R,5S,6r)-6-(1H-1,2,3-Triazol-5-yl)-3-azabicyclo[3.1.0]hexan-3-yl)-1,3,4-oxadiazol-2-yl)-N-(3,5-dichlorophenethyl)pyrimidin-2-amine]
34.7 | Cc1nn[nH]c1[C@H]1[C@@H]2CN(c3nnc(-c4cnc(NCCc5ccc(Cl)cc5)nc4)o3)C[C@@H]21 [Example 48, N-(4-Chlorophenethyl)-5-(5-((1R,5S,6r)-6-(4-methyl-1H-1,2,3-triazol-5-yl)-3-azabicyclo[3.1.0]hexan-3-yl)-1,3,4-oxadiazol-2-yl)pyrimidin-2-amine]
68.4 | Clc1ccc(CCNc2cnc(-c3nnc(N4C[C@@H]5[C@H](C4)[C@H]5c4cnn[nH]4)o3)cn2)cc1 [Example 42, 5-(5-((1R,5S,6r)-6-(1H-1,2,3-Triazol-5-yl)-3-azabicyclo[3.1.0]hexan-3-yl)-1,3,4-oxadiazol-2-yl)-N-(4-chlorophenethyl)pyrazin-2-amine]
58.6 | O=C(CCCc1cnc(NCc2cc(Cl)cc(Cl)c2)nc1)N1C[C@@H]2[C@H](C1)[C@H]2c1cnn[nH]1 [Example 44, 1-((1R,5S,6r)-6-(1H-1,2,3-Triazol-5-yl)-3-azabicyclo[3.1.0]hexan-3-yl)-4-(2-((3,5-dichlorobenzyl)amino)pyrimidin-5-yl)butan-1-one]
95.8 | Clc1ccc(CCNc2ccc(-c3nnc(N4C[C@@H]5[C@H](C4)[C@H]5c4cnn[nH]4)o3)cn2)cc1 [Example 41, 5-(5-((1R,5S,6r)-6-(1H-1,2,3-Triazol-5-yl)-3-azabicyclo[3.1.0]hexan-3-yl)-1,3,4-oxadiazol-2-yl)-N-(4-chlorophenethyl)pyridin-2-amine]
65.2 | c1ccc(Nc2ncc(-c3nnc(N4C[C@@H]5[C@H](C4)[C@H]5c4cnn[nH]4)o3)cn2)cc1 [Example 36, 5-(5-((1R,5S,6r)-6-(1H-1,2,3-Triazol-5-yl)-3-azabicyclo[3.1.0]hexan-3-yl)-1,3,4-oxadiazol-2-yl)-N-phenylpyrimidin-2-amine]
84.8 | O=C(CCc1cnc(NCCc2ccc(Cl)cc2)nc1)N1C[C@@H]2[C@H](C1)[C@H]2c1cnn[nH]1 [Example 43, 1-((1R,5S,6r)-6-(1H-1,2,3-Triazol-5-yl)-3-azabicyclo[3.1.0]hexan-3-yl)-3-(2-((4-chlorophenethyl)amino)pyrimidin-5-yl)propan-1-one]
90.8 | c1ccc2c(c1)CC[C@H]2Nc1ncc(-c2nnc(N3C[C@@H]4[C@H](C3)[C@H]4c3cnn[nH]3)o2)cn1 [Example 34, 5-(5-((1R,5S,6R)-6-(1H-1,2,3-Triazol-5-yl)-3-azabicyclo[3.1.0]hexan-3-yl)-1,3,4-oxadiazol-2-yl)-N-((R)-2,3-dihydro-1H-inden-1-yl)pyrimidin-2-amine]

Second part, the compound before the results:

Structure (SMILES) | inhibition at 0.5 µM [%]
FC(F)(F)c1ccccc1CNc1ncc(-c2nnc(N3C[C@@H]4[C@H](C3)[C@H]4c3cnn[nH]3)o2)cn1 [Example 22, 5-(5-((1R,5S,6r)-6-(1H-1,2,3-Triazol-5-yl)-3-azabicyclo[3.1.0]hexan-3-yl)-1,3,4-oxadiazol-2-yl)-N-(2-(trifluoromethyl)benzyl)pyrimidin-2-amine] | 98.4
Clc1ccc(CCNc2ncc(-c3nnc(N4C[C@@H]5[C@H](C4)[C@H]5c4cnn[nH]4)o3)cn2)cc1 [Example 15, 5-(5-((1R,5S,6r)-6-(1H-1,2,3-Triazol-5-yl)-3-azabicyclo[3.1.0]hexan-3-yl)-1,3,4-oxadiazol-2-yl)-N-(4-chlorophenethyl)pyrimidin-2-amine] | 94.5
c1ccc(CNc2ncc(-c3nnc(N4C[C@@H]5[C@H](C4)[C@H]5c4cnn[nH]4)o3)cn2)cc1 [Example 1, 5-(5-((1R,5S,6r)-6-(1H-1,2,3-Triazol-5-yl)-3-azabicyclo[3.1.0]hexan-3-yl)-1,3,4-oxadiazol-2-yl)-N-benzylpyrimidin-2-amine] | 63.6
Clc1cc(Cl)cc(CNc2ncc(-c3nnc(N4C[C@@H]5[C@H](C4)[C@H]5c4cnn[nH]4)o3)cn2)c1 [Example 7, 5-(5-((1R,5S,6r)-6-(1H-1,2,3-Triazol-5-yl)-3-azabicyclo[3.1.0]hexan-3-yl)-1,3,4-oxadiazol-2-yl)-N-(3,5-dichlorobenzyl)pyrimidin-2-amine] | 92
Fc1cccc(CCNc2ncc(-c3nnc(N4C[C@@H]5[C@H](C4)[C@H]5c4cnn[nH]4)o3)cn2)c1 [Example 12, 5-(5-((1R,5S,6r)-6-(1H-1,2,3-Triazol-5-yl)-3-azabicyclo[3.1.0]hexan-3-yl)-1,3,4-oxadiazol-2-yl)-N-(3-fluorophenethyl)pyrimidin-2-amine] | 82.9
Brc1ccc(CCNc2ncc(-c3nnc(N4C[C@@H]5[C@H](C4)[C@H]5c4cnn[nH]4)o3)cn2)cc1 [Example 27, 5-(5-((1R,58,6r)-6-(1H-1,2,3-Triazol-5-yl)-3-azabicyclo[3.1.0]hexan-3-yl)-1,3,4-oxadiazol-2-yl)-N-(4-bromophenethyl)pyrimidin-2-amine] | 98.6
Brc1cc(Br)cc(CNc2ncc(-c3nnc(N4C[C@@H]5[C@H](C4)[C@H]5c4cnn[nH]4)o3)cn2)c1 [Example 8, 5-(5-((1R,5S,6r)-6-(1H-1,2,3-Triazol-5-yl)-3-azabicyclo[3.1.0]hexan-3-yl)-1,3,4-oxadiazol-2-yl)-N-(3,5-dibromobenzyl)pyrimidin-2-amine] | 97.3
Clc1ccccc1CCNc1ncc(-c2nnc(N3C[C@@H]4[C@H](C3)[C@H]4c3cnn[nH]3)o2)cn1 [Example 28, 5-(5-((1R,5S,6r)-6-(1H-1,2,3-Triazol-5-yl)-3-azabicyclo[3.1.0]hexan-3-yl)-1,3,4-oxadiazol-2-yl)-N-(2-chlorophenethyl)pyrimidin-2-amine] | 96.4
Fc1ccc(CNc2ncc(-c3nnc(N4C[C@@H]5[C@H](C4)[C@H]5c4cnn[nH]4)o3)cn2)cc1F [Example 4, 5-(5-((1R,5S,6r)-6-(1H-1,2,3-Triazol-5-yl)-3-azabicyclo[3.1.0]hexan-3-yl)-1,3,4-oxadiazol-2-yl)-N-(3,4-difluorobenzyl)pyrimidin-2-amine] | 81.5
N#Cc1cccc(CNc2ncc(-c3nnc(N4C[C@@H]5[C@H](C4)[C@H]5c4cnn[nH]4)o3)cn2)c1 [Example 25, 3-(((5-(5-((1R,5S,6r)-6-(1H-1,2,3-Triazol-5-yl)-3-azabicyclo[3.1.0]hexan-3-yl)-1,3,4-oxadiazol-2-yl)pyrimidin-2-yl)amino)methyl)benzonitrile] | 95.2
FC(F)(F)c1cccc(CNc2ncc(-c3nnc(N4C[C@@H]5[C@H](C4)[C@H]5c4cnn[nH]4)o3)cn2)c1 [Example 21, 5-(5-((1R,5S,6r)-6-(1H-1,2,3-Triazol-5-yl)-3-azabicyclo[3.1.0]hexan-3-yl)-1,3,4-oxadiazol-2-yl)-N-(3-(trifluoromethyl)benzyl)pyrimidin-2-amine] | 97.6
FC(F)c1ccc(CNc2ncc(-c3nnc(N4C[C@@H]5[C@H](C4)[C@H]5c4cnn[nH]4)o3)cn2)cc1 [Example 23, 5-(5-((1R,5S,6r)-6-(1H-1,2,3-Triazol-5-yl)-3-azabicyclo[3.1.0]hexan-3-yl)-1,3,4-oxadiazol-2-yl)-N-(4-(difluoromethyl)benzyl)pyrimidin-2-amine] | 82.2
